According to paper PMC7838546, “A Thermostable, Modified Cathelicidin-Derived Peptide With Enhanced Membrane-Active Activity Against Salmonella enterica serovar Typhimurium” (Frontiers in Microbiology, 2021):
Where two headings read alike, the source gives them in different places. Ends that are not written are not given here.

Columns and labels:
[1] = test system: human red blood cells (hRBCs); conditions: highest concentration tested 250 μg/ml, ref Klubthawee et al., 2020; cited from earlier work
Excerpt: Recently, a 12-mer α-helical, cationic AMP (‘P7’) was designed based on the cathelicidin family using a template-modified strategy, and subsequently modified by truncation and amino acid substitution ([Klubthawee et al., 2020]). […] Furthermore, P7 sho ...

[2] = test system: S. enterica serovar Typhimurium ATCC 13311; assay type: cell-based, Salmonella enterica serovar Typhimurium
Experimental: In order to induce bacterial resistance to P7, S. enterica serovar Typhimurium ATCC 13311 were cultured for 10 serial passages in MHB in the presence of P7 in a series of concentrations ranging from 0.98 to 250 μg/ml ([Veldhuizen et al., 2013]). In each passage, 50 μl of bacterial samples at sublethal concentrations (the highest peptide concentration displaying 80% growth compared with growth in MHB) were used to determine MIC values by a broth microdilution assay.

[3] = test system: S. enterica serovar Typhimurium H1-001 (clinical isolate); assay: MIC/MBC, broth microdilution and colony count; assay type: cell-based, Salmonella enterica serovar Typhimurium; conditions: H1-001, blood, resistant Amp, Ctx, C, Cp, NA, T, intermediate Amc, broth microdilution, 37°C, 24 h
Experimental: (§1) Salmonella enterica serovar Typhimurium ATCC 13311, 24 drug-resistant foodborne and eleven drug-resistant human borne S. enterica serovar Typhimurium and 4,5,12:i:- isolates (Table 1) were used as test microorganisms. They were previously isolated for molecular characterization in 2014 and kindly provided by Dr. Soraya Chaturongakul (Mahidol University, Thailand) ([Huoy et al., 2014]). All bacteria were cultured in Tryptic Soy Broth (TSB) and incubated at 37°C for 18 h. Mueller Hinton Broth (MHB) was then used to wash and rinse the bacteria. The bacterial suspensions were then diluted to obtain concentrations of 10^7 CFU/ml for inoculations.
(§2) A modified version of the National Committee for Clinical Laboratory Standards (NCCLS) broth microdilution method ([Steinberg et al., 1997]) was used to determine the minimum inhibitory concentrations (MICs) of peptide and compared to that of nisin. Fifty microliters of two-fold serial dilutions of each peptide [0.98–250 μg/ml in 0.01% (v/v) acetic acid and 0.2% (w/v) bovine serum albumin (BSA, Sigma-Aldrich, MO, United States)], were incubated with 50 μl of bacterial suspensions (approximately 10^7 CFU/ml) at 37°C for 24 h in a shaking incubator. MICs were taken as the lowest concentration of peptide at which growth was inhibited as observed by visual inspection. Bacterial cultures without peptides and uncultured broth were used as positive and negative controls, respectively. Minimal bactericidal concentrations (MBCs) were determined using a colony count assay ([Clinical Laboratory Standards Institute [CLSI], 2015]). Fifty microliters of samples from each non-turbid well in the MIC determination experiment was plated on Mueller Hinton Agar (MHA) and colonies were observed after overnight incubation at 37°C. MBCs were designated as the least concentration showing no colony growth on the plate. All of experiments were performed in triplicate.

[4] = test system: S. enterica serovar Typhimurium H1-006 (clinical isolate); assay: MIC/MBC, broth microdilution and colony count; assay type: cell-based, Salmonella enterica serovar Typhimurium; conditions: H1-006, blood; resistant NA; intermediate S, Cp; broth microdilution, 37°C, 24 h
Experimental: as §1, §2

[5] = test system: S. enterica serovar 4,5,12:i:- H2-046 (foodborne isolate); assay: MIC/MBC, broth microdilution and colony count; assay type: cell-based, Salmonella enterica serovar 4,5,12:i:-; conditions: H2-046, pork heart, resistant Amp, T, intermediate Cp, broth microdilution, 37°C, 24 h
Experimental: as §1, §2

[6] = test system: S. enterica serovar 4,5,12:i:- H1-025 (clinical isolate); assay: MIC/MBC, broth microdilution and colony count; assay type: cell-based, Salmonella enterica serovar 4,5,12:i:-; conditions: H1-025, urine, resistant Amp, Ctx, C, T, intermediate Cp, NA, SxT, broth microdilution, 37°C, 24 h
Experimental: as §1, §2

[7] = test system: S. enterica serovar 4,5,12:i:- H2-072 (foodborne isolate); assay: MIC/MBC, broth microdilution and colony count; assay type: cell-based, Salmonella enterica serovar 4,5,12:i:-; conditions: H2-072, pork intestine, resistant Amp, Ctx, C, T, SxT, intermediate Cp, broth microdilution, 37°C, 24 h
Experimental: as §1, §2

[8] = test system: S. enterica serovar 4,5,12:i:- H2-082 (foodborne isolate); assay: MIC/MBC, broth microdilution and colony count; assay type: cell-based, Salmonella enterica serovar 4,5,12:i:-; conditions: H2-082, pork intestine, resistant Amp, T, broth microdilution, 37°C, 24 h
Experimental: as §1, §2

[9] = test system: S. enterica serovar 4,5,12:i:- H2-055 (foodborne isolate); assay: MIC/MBC, broth microdilution and colony count; assay type: cell-based, Salmonella enterica serovar 4,5,12:i:-; conditions: H2-055, pork liver, resistant Amp, T, broth microdilution, 37°C, 24 h
Experimental: as §1, §2

[10] = test system: S. enterica serovar 4,5,12:i:- H2-071 (foodborne isolate); assay: MIC/MBC, broth microdilution and colony count; assay type: cell-based, Salmonella enterica serovar 4,5,12:i:-; conditions: H2-071, pork heart, resistant Amp, Ctx, C, T, SxT, intermediate Cp, broth microdilution, 37°C, 24 h
Experimental: as §1, §2

[11] = test system: S. enterica serovar 4,5,12:i:- H2-067 (foodborne isolate); assay: MIC/MBC, broth microdilution and colony count; assay type: cell-based, Salmonella enterica serovar 4,5,12:i:-; conditions: H2-067, pork kidney, resistant Amp, T, broth microdilution, 37°C, 24 h
Experimental: as §1, §2

[12] = test system: S. enterica serovar 4,5,12:i:- H2-089 (foodborne isolate); assay: MIC/MBC, broth microdilution and colony count; assay type: cell-based, Salmonella enterica serovar 4,5,12:i:-; conditions: H2-089, pork intestine, resistant Amp, broth microdilution, 37°C, 24 h
Experimental: as §1, §2

[13] = test system: S. enterica serovar 4,5,12:i:- H1-027 (clinical isolate); assay: MIC/MBC, broth microdilution and colony count; assay type: cell-based, Salmonella enterica serovar 4,5,12:i:-; conditions: H1-027, stool, resistant Amp, T, broth microdilution, 37°C, 24 h
Experimental: as §1, §2

[14] = test system: S. enterica serovar 4,5,12:i:- H2-047 (foodborne isolate); assay: MIC/MBC, broth microdilution and colony count; assay type: cell-based, Salmonella enterica serovar 4,5,12:i:-; conditions: H2-047, pork liver, resistant Amp, intermediate Cp, broth microdilution, 37°C, 24 h
Experimental: as §1, §2

In the case of KIAKRIWKILRR-NH2 [P7], the Hemolysis [1] is listed as “less than 5%”, the MIC ([2]; serial passage 1) is listed as 3.91 µg/mL and the MIC ([2]; serial passage 2) is listed as 3.91 µg/mL. The MIC ([2]; serial passage 3) was 3.91 µg/mL, the MIC ([2]; serial passage 4) was 3.91 µg/mL and the MIC ([2]; serial passage 5) was 3.91 µg/mL. It also gave an MIC ([2]; serial passage 6) of 3.91 µg/mL, an MIC ([2]; serial passage 7) of 3.91 µg/mL and an MIC ([2]; serial passage 8) of 3.91 µg/mL. The MIC ([2]; serial passage 9) was 3.91 µg/mL, the MIC ([2]; serial passage 10) was 3.91 µg/mL and the MIC ([2]; through all bacterial passages (10 serial passages)) was 3.91 µg/mL.
In the case of “Nisin: authorized food preservative peptide, binds lipid II and forms membrane pores (ITSISLCTPGCKTGALMGCNMKTATCHCSIHVSK; cysteine pairing not given here; also: lantibiotic nisin-A; UniProt P13068 24-57, looked up)”, the MIC [3] is reported as over 1000 µg/mL, the MIC [4] is reported as over 1000 µg/mL and the MIC [5] is reported as over 1000 µg/mL. For the same substance, the MIC [6] was over 1000 µg/mL, the MIC [7] was over 1000 µg/mL and the MIC [8] was over 1000 µg/mL. The MIC [9] was over 1000 µg/mL, the MIC [10] was over 1000 µg/mL and the MIC [11] was over 1000 µg/mL. The MIC [12] was over 1000 µg/mL, the MIC [13] was over 1000 µg/mL and the MIC [14] was over 1000 µg/mL.
